Among the data in US10844052B2, “LLS compounds for treatment of cancer” (THE REGENTS OF THE UNIVERSITY OF CALIFORNIA, priority 2016, dated 2020) are viability values, retold here.

The viability is a read-out of living cells in per cent, often relative to untreated cells.

This assay deals with PC3 prostate cancer cells. Kind of assay: Cell viability of prostate cancer PC3 cells after 72 hours treatment. Type of assay: cell-based. The conditions noted are these: Homo sapiens; for viability at 2.5 µM: PC-3, 2.5 μM; for viability at 5 µM: PC-3, 5 μM; for viability at 10 µM: PC-3, 10 μM; for viability at 20 µM: PC-3, 20 μM. The protocol:
Effects of compounds LLS42-LLS80 on the viability of PC3 prostate cancer cells after 72 hours of treatment are shown in Table 2 below: […]

As to `NC(=O)CC(NCc1ccc(Cl)c(Cl)c1)c1ccc2c(c1)nc(-c1ccc(N3CCOCC3)cc1)n2CCCN1CCCCC1` (stereo not shown) [LLS65, 3-((3,4-dichlorobenzyl)amino)-3-(2-(4-morpholinophenyl)-1-(3-(piperidin-1-yl)propyl)-1H-benzo[d]imidazol-5-yl)propanamide], the viability at 2.5 µM is 95%, the viability at 5 µM was 94%, the viability at 10 µM turned out to be 74% and the viability at 20 µM amounted to 34%.

`NC(=O)CC(NCc1ccc(Cl)c(Cl)c1)c1ccc2c(c1)nc(-c1ccc(N(CCO)CCO)cc1)n2CCCN1CCCCC1` (stereo not shown) [LLS46, 3-(2-(4-(bis(2-hydroxyethyl)amino)phenyl)-1-(3-(piperidin-1-yl)propyl)-1H-benzo[d]imidazol-5-yl)-3-((3,4-dichlorobenzyl)amino)propanamide]: the viability at 2.5 µM is 86%, the viability at 5 µM was 97%, the viability at 10 µM came out at 92% and the viability at 20 µM was 94%.

`COc1cc(CNC(CC(N)=O)c2ccc3c(c2)nc(-c2ccc(N(CCO)CCOC(C)=O)cc2)n3C(C)C)cc(Br)c1OC` (stereo not shown) [LLS43, 2-((4-(5-(3-amino-1-((3-bromo-4,5-dimethoxybenzyl)amino)-3-oxopropyl)-1-isopropyl-1H-benzo[d]imidazol-2-yl)phenyl)(2-hydroxyethyl)amino)ethyl Acetate]: the viability at 2.5 µM worked out at 105%, the viability at 5 µM came out at 102%, the viability at 10 µM amounted to 101% and the viability at 20 µM turned out to be 105%.

Take `CN1CCN(c2ccc(-c3nc4cc(C(CC(N)=O)NCc5ccc(Cl)c(Cl)c5)ccc4n3Cc3ccc(C(F)(F)F)cc3)cc2)CC1` (stereo not shown) [LLS64, 3-((3,4-dichlorobenzyl)amino)-3-(2-(4-(4-methylpiperazin-1-yl)phenyl)-1-(4-(trifluoromethyl)benzyl)-1H-benzo[d]imidazol-5-yl)propanamide]: the viability at 2.5 µM was determined as 94%, the viability at 5 µM came out at 83%, the viability at 10 µM is 60% and the viability at 20 µM is 3%.

`COc1ccc(CCn2c(-c3ccc(N(CCOC(C)=O)CCOC(C)=O)cc3)nc3cc(C(CC(N)=O)NCc4ccc5[nH]ncc5c4)ccc32)cc1` (stereo not shown) [LLS53Ac, ((4-(5-(1-(((1H-indazol-5-yl)methyl)amino)-3-amino-3-oxopropyl)-1-(4-methoxyphenethyl)-1H-benzo[d]imidazol-2-yl)phenyl)azanediyl)bis(ethane-2,1-diyl) Diacetate]: the viability at 2.5 µM was found to be 97%, the viability at 5 µM was determined as 94%, the viability at 10 µM worked out at 99% and the viability at 20 µM is 101%.

As for `NCCn1c(-c2ccc(N(CCO)CCO)cc2)nc2cc(C(CC(N)=O)NCc3ccc(Br)s3)ccc21` (stereo not shown) [LLS45, 3-(1-(2-aminoethyl)-2-(4-(bis(2-hydroxyethyl)amino)phenyl)-1H-benzo[d]imidazol-5-yl)-3-(((5-bromothiophen-2-yl)methyl)amino)propanamide], the viability at 2.5 µM was found to be 92%, the viability at 5 µM turned out to be 102%, the viability at 10 µM is 118% and the viability at 20 µM was determined as 117%.

`CC(=O)OCCN(CCOC(C)=O)c1ccc(-c2nc3cc(C(CC(N)=O)NCc4ccc(Br)s4)ccc3n2CCN)cc1` (stereo not shown) [LLS45Ac, ((4-(5-(3-amino-1-(((5-bromothiophen-2-yl)methyl)amino)-3-oxopropyl)-1-(2-aminoethyl)-1H-benzo[d]imidazol-2-yl)phenyl)azanediyl)bis(ethane-2,1-diyl) Diacetate]: the viability at 2.5 µM worked out at 98%, the viability at 5 µM is 98%, the viability at 10 µM stood at 98% and the viability at 20 µM was determined as 91%.

For `NC(=O)CC(NCc1cccc2ccccc12)c1ccc2c(c1)nc(-c1ccc(N(CCO)CCO)cc1)n2Cc1ccc(C(F)(F)F)cc1` (stereo not shown) [LLS73, 3-(2-(4-(bis(2-hydroxyethyl)amino)phenyl)-1-(4-(trifluoromethyl)benzyl)-1H-benzo[d]imidazol-5-yl)-3-((naphthalen-1-ylmethyl)amino)propanamide], the viability at 2.5 µM stood at 94%, the viability at 5 µM stood at 92%, the viability at 10 µM stood at 69% and the viability at 20 µM was 8%.

For `NC(=O)CC(NCc1ccc(-c2ccncc2)cc1)c1ccc2c(c1)nc(-c1ccc(N(CCO)CCO)cc1)n2CCCn1ccnc1` (stereo not shown) [LLS58, 3-(1-(3-(1H-imidazol-1-yl)propyl)-2-(4-(bis(2-hydroxyethyl)amino)phenyl)-1H-benzo[d]imidazol-5-yl)-3-((4-(pyridin-4-yl)benzyl)amino)propanamide], the viability at 2.5 µM came to 92%, the viability at 5 µM stood at 84%, the viability at 10 µM amounted to 81% and the viability at 20 µM came out at 74%.

As for `NC(=O)CC(NCc1ccc2[nH]ncc2c1)c1ccc2c(c1)nc(-c1ccc(N(CCO)CCO)cc1)n2Cc1ccc(C(F)(F)F)cc1` (stereo not shown) [LLS77, 3-(((1H-indazol-5-yl)methyl)amino)-3-(2-(4-(bis(2-hydroxyethyl)amino)phenyl)-1-(4-(trifluoromethyl)benzyl)-1H-benzo[d]imidazol-5-yl)propanamide], the viability at 2.5 µM turned out to be 99%, the viability at 5 µM was determined as 100%, the viability at 10 µM was 101% and the viability at 20 µM worked out at 103%.

`COc1ccc(CCn2c(-c3ccc(N(CCO)CCO)cc3)nc3cc(C(CC(N)=O)NCC4CCCCC4)ccc32)cc1` (stereo not shown) [LLS56]: the viability at 2.5 µM came out at 104%, the viability at 5 µM was determined as 105%, the viability at 10 µM is 98% and the viability at 20 µM was found to be 93%.

Take `NC(=O)CC(NCC1CCCCC1)c1ccc2c(c1)nc(-c1ccc(N3CCOCC3)cc1)n2Cc1ccc(OC(F)(F)F)cc1` (stereo not shown) [LLS80, 3-((cyclohexylmethyl)amino)-3-(2-(4-morpholinophenyl)-1-(4-(trifluoromethoxy)benzyl)-1H-benzo[d]imidazol-5-yl)propanamide]: the viability at 2.5 µM stood at 86%, the viability at 5 µM came out at 25%, the viability at 10 µM is 6% and the viability at 20 µM amounted to 0%.

`NCCCn1c(-c2ccc(N(CCO)CCO)cc2)nc2cc(C(CC(N)=O)NCc3ccc(C4CC=NN4)s3)ccc21` (stereo not shown) [LLS54, 3-(1-(3-aminopropyl)-2-(4-(bis(2-hydroxyethyl)amino)phenyl)-1H-benzo[d]imidazol-5-yl)-3-(((5-(4,5-dihydro-1H-pyrazol-5-yl)thiophen-2-yl)methyl)amino)propanamide]: the viability at 2.5 µM worked out at 90%, the viability at 5 µM worked out at 86%, the viability at 10 µM came to 105% and the viability at 20 µM came to 87%.

Regarding `COc1ccc(CCn2c(-c3ccc(N(CCOC(C)=O)CCOC(C)=O)cc3)nc3cc(C(CC(N)=O)NCc4ccc5[nH]ccc5c4)ccc32)cc1` (stereo not shown) [LLS69Ac, ((4-(5-(1-(((1H-indol-5-yl)methyl)amino)-3-amino-3-oxopropyl)-1-(4-methoxyphenethyl)-1H-benzo[d]imidazol-2-yl)phenyl)azanediyl)bis(ethane-2,1-diyl) Diacetate], the viability at 2.5 µM came out at 101%, the viability at 5 µM is 95%, the viability at 10 µM worked out at 73% and the viability at 20 µM came out at 2%.

`COc1ccc(CCn2c(-c3ccc(N(CCO)CCO)cc3)nc3cc(C(CC(N)=O)NCc4ccc5[nH]ncc5c4)ccc32)cc1` (stereo not shown) [LLS53, 3-(((1H-indazol-5-yl)methyl)amino)-3-(2-(4-(bis(2-hydroxyethyl)amino)phenyl)-1-(4-methoxyphenethyl)-1H-benzo[d]imidazol-5-yl)propanamide]: the viability at 2.5 µM is 93%, the viability at 5 µM worked out at 91%, the viability at 10 µM is 98% and the viability at 20 µM was determined as 105%.

`NC(=O)CC(NCc1cccn1S(=O)(=O)c1ccccc1)c1ccc2c(c1)nc(-c1ccc(N(CCO)CCO)cc1)n2CCCN1CCCCC1` (stereo not shown) [LLS52, 3-(2-(4-(bis(2-hydroxyethyl)amino)phenyl)-1-(3-(piperidin-1-yl)propyl)-1H-benzo[d]imidazol-5-yl)-3-(((1-(phenylsulfonyl)-1H-pyrrol-2-yl)methyl)amino)propanamide]: the viability at 2.5 µM was 97%, the viability at 5 µM was 96%, the viability at 10 µM was found to be 87% and the viability at 20 µM was 84%.

Take `NC(=O)CC(NCc1cccc2ccccc12)c1ccc2c(c1)nc(-c1ccc(N(CCO)CCO)cc1)n2Cc1ccc(OC(F)(F)F)cc1` (stereo not shown) [LLS63, 3-(2-(4-(bis(2-hydroxyethyl)amino)phenyl)-1-(4-(trifluoromethoxy)benzyl)-1H-benzo[d]imidazol-5-yl)-3-((naphthalen-1-ylmethyl)amino)propanamide]: the viability at 2.5 µM is 80%, the viability at 5 µM came out at 86%, the viability at 10 µM is 29% and the viability at 20 µM was 0%.

Turning to `COc1cccc(Cn2c(-c3ccc(N(CCO)CCO)cc3)nc3cc(C(CC(N)=O)NCc4ccc5[nH]ncc5c4)ccc32)c1` (stereo not shown) [LLS59, 3-(((1H-indazol-5-yl)methyl)amino)-3-(2-(4-(bis(2-hydroxyethyl)amino)phenyl)-1-(3-methoxybenzyl)-1H-benzo[d]imidazol-5-yl)propanamide], the viability at 2.5 µM was 83%, the viability at 5 µM turned out to be 97%, the viability at 10 µM is 90% and the viability at 20 µM came to 91%.

Regarding `COc1ccc(CCn2c(-c3ccc(N(CCOC(C)=O)CCOC(C)=O)cc3)nc3cc(C(CC(N)=O)NCC4CCCCC4)ccc32)cc1` (stereo not shown) [LLS56Ac, ((4-(5-(3-amino-1-((cyclohexylmethyl)amino)-3-oxopropyl)-1-(4-methoxyphenethyl)-1H-benzo[d]imidazol-2-yl)phenyl)azanediyl)bis(ethane-2,1-diyl) Diacetate], the viability at 2.5 µM came out at 85%, the viability at 5 µM worked out at 93%, the viability at 10 µM came out at 92% and the viability at 20 µM was 55%.
